# Results published in ChEMBL document CHEMBL3992567, “Discovery of Highly Potent 2-Sulfonyl-Pyrimidinyl Derivatives for Apoptosis Inhibition and Ischemia Treatment” (ACS Med Chem Lett, 2017).
# The source made the active and inactive calls. The rule behind the calls is not given here. Residues, ends and D or L forms follow the SMILES beside them.
# Legend:
# [1] = Cysteine reactivity of the compound at 20 uM after 2 hrs by UPLC analysis
# [2] = Glutathione reactivity of the compound at 20 uM after 2 hrs by UPLC analysis
# [3] = Lysine reactivity of the compound at 20 uM after 2 hrs by UPLC analysis
# [4] = molecular target: T1, Succinate dehydrogenase [ubiquinone] iron-sulfur subunit, mitochondrial (Homo sapiens) (UniProt P21912); test: Irreversible inhibition of SDHB in human U2OS cells over-expressing Bim assessed as inhibition of apoptosis preincubated for 1 hr followed by compound washout and doxycyclin addition to induce Bim protein expression measured after 24 hrs by Cell Titer-Glo assay; format: cell-based
# T1 sequence (whole entry): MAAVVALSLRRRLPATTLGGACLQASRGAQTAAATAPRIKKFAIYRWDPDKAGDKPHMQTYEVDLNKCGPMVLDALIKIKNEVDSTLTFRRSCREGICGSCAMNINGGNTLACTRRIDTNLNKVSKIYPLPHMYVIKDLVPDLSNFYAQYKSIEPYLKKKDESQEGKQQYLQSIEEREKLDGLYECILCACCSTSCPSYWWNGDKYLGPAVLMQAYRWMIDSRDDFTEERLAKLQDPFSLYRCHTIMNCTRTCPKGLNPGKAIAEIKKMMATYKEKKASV
# [5] = Glutathione reactivity of the compound in PBS buffer at 100 nM up to 35 mins by LC-MS/Ms analysis
# U2OS [6] = test: Inhibition of mitochondrial-mediated apoptosis in human U2OS cells assessed as reduction in mitochondrial membrane potential loss at 100 nM preincubated for 1 hr followed by doxycyclin addition measured after 4 hrs by TMRM dye based confocal microscopic method; format: functional, cell-based
# U2OS [7] = test: Inhibition of mitochondrial-mediated apoptosis in human U2OS cells assessed as reduction in ROS level preincubated for 2 hrs followed by doxycyclin addition measured after 4 hrs by DCFH-DA dye based fluorescence assay; format: functional, cell-based
# Rattus norvegicus [8] = species: Rattus norvegicus; test: Protection against middle cerebral artery occlusion-induced transient focal cerebral ischemia in Sprague-Dawley rat assessed as reduction in brain infarct volume at 10 to 200 uM pretreated for 1 hr followed by reperfusion measured 24 hrs post MCAO by TTC staining based assay; format: functional
# U2OS [9] = test: Inhibition of mitochondrial-mediated apoptosis in human U2OS cells assessed as reduction in mitochondrial membrane potential loss at 1 uM preincubated for 1 hr followed by doxycyclin addition measured after 4 hrs by TMRM dye based confocal microscopic method; format: functional, cell-based
# U2OS [10] = test: Inhibition of mitochondrial-mediated apoptosis in human U2OS cells assessed as reduction in mitochondrial membrane potential loss at 3 nM preincubated for 1 hr followed by doxycyclin addition measured after 4 hrs by TMRM dye based confocal microscopic method; format: functional, cell-based
# Rattus norvegicus [11] = species: Rattus norvegicus; test: Protection against middle cerebral artery occlusion-induced transient focal cerebral ischemia in Sprague-Dawley rat assessed as reduction in brain infarct volume at 50 to 200 uM pretreated for 1 hr followed by reperfusion measured 24 hrs post MCAO by TTC staining based assay; format: functional
# U2OS [12] = test: Inhibition of mitochondrial-mediated apoptosis in human U2OS cells assessed as reduction in mitochondrial membrane potential loss at 10 uM preincubated for 1 hr followed by doxycyclin addition measured after 4 hrs by TMRM dye based confocal microscopic method; format: functional, cell-based
# U2OS [13] = test: Inhibition of apoptosis in human U2OS cells over-expressing Bim assessed as mitochondrial cytochrome c release at 20 uM after 1 hr in presence of doxycyclin by confocal microscopic method; format: functional, cell-based
# U2OS [14] = test: Inhibition of apoptosis in human U2OS cells over-expressing Bim assessed as mitochondrial cytochrome c release at 10 uM after 1 hr in presence of doxycyclin by confocal microscopic method; format: functional, cell-based
smiles,measurement,setting,value
CS(=O)(=O)c1nc(-c2cccs2)cc(C(F)(F)F)n1,Activity,[1],Active
same,Activity,[2],Active
same,Activity,[3],inactive
same,inhibition,[4],Active
COc1ccc(Cn2cc(-c3cc(C(F)(F)F)nc(S(C)(=O)=O)n3)ccc2=O)cc1,inhibition,[4],Active
COc1ccc(Cn2cc(-c3cc(C(F)(F)F)nc(S(C)(=O)=O)n3)ccc2=O)cc1OC,Activity,[5],Active
same,Activity,[1],Active
same,Activity,[2],Active
same,Activity,[3],inactive
same,inhibition,[4],Active
same,inhibition,U2OS [6],Active
same,inhibition,U2OS [7],Active
same,Activity,Rattus norvegicus [8],Active
CS(=O)(=O)c1nc(-c2ccccc2)cc(C(F)(F)F)n1,inhibition,[4],Active
CCCOc1cccc(Cn2cc(-c3cc(C(F)(F)F)nc(S(C)(=O)=O)n3)ccc2=O)c1,inhibition,[4],Active
same,inhibition,U2OS [7],Active
CS(=O)(=O)c1nc(-c2ccc(=O)n(Cc3ccc(Cl)cc3)c2)cc(C(F)(F)F)n1,inhibition,[4],Active
same,inhibition,U2OS [9],Active
same,inhibition,U2OS [7],Active
COc1ccc(Cn2cc(-c3cc(C(F)(F)F)nc(S(=O)(=O)CCCC(=O)NC45CC6CC(CC(C6)C4)C5)n3)ccc2=O)cc1OC,Activity,[5],Active
same,Activity,[1],Active
same,Activity,[2],Active
same,Activity,[3],inactive
same,inhibition,[4],Active
same,inhibition,U2OS [10],Active
same,Activity,Rattus norvegicus [11],Active
COc1cccc(Cn2cc(-c3cc(C(F)(F)F)nc(S(C)(=O)=O)n3)ccc2=O)c1,inhibition,[4],Active
same,inhibition,U2OS [7],Active
CS(=O)(=O)c1nc(-c2ccc(=O)n(Cc3cccc(Cl)c3)c2)cc(C(F)(F)F)n1,inhibition,[4],Active
same,inhibition,U2OS [9],Active
same,inhibition,U2OS [7],Active
CS(=O)(=O)c1nc(-c2ccc(=O)n(Cc3ccccc3Cl)c2)cc(C(F)(F)F)n1,inhibition,[4],Active
CS(=O)(=O)c1nc(-c2ccc(=O)n(Cc3ccccc3)c2)cc(C(F)(F)F)n1,inhibition,[4],Active
same,inhibition,U2OS [12],Active
same,inhibition,U2OS [7],Active
CCOC(=O)CCS(=O)(=O)c1nc(-c2cccs2)cc(C(F)(F)F)n1,inhibition,[4],Active
CC(C)[C@H](NC(=O)OCc1ccccc1)C(=O)N[C@@H](C)C(=O)N[C@@H](CC(=O)O)C(=O)O (HELM PEPTIDE1{[O=C(OCc1ccccc1)[*:2]].V.A.D}$$$$V2.0),inhibition,U2OS [13],inactive
same,inhibition,U2OS [12],inactive
Cc1cc(-c2cccs2)nc(S(C)(=O)=O)n1,Activity,[1],inactive
same,Activity,[2],inactive
same,Activity,[3],inactive
Cc1ccc(O)c(NC(=O)CCCS(=O)(=O)c2nc(-c3cccs3)cc(C(F)(F)F)n2)c1,inhibition,U2OS [14],Active
